Assays:
[1] = test system: elastase-induced abdominal aortic aneurysms; assay: Elastase-induced rat model of abdominal aortic aneurysm; type: in vivo; conditions: 15 mg/kg/day; for inhibition of aortic dilatation induced by elastase perfusion: vs saline, FIG. 77
Source text: The following example is provided to assist in a further understanding of the present invention. The particular materials and conditions employed are intended to be further illustrative of the invention and are not limiting upon the reasonable scope thereof Male Wistar rats (350-400 g) were subjected to perfusion of an isolated segment of the infrarenal abdominal aorta with 50 units of porcine pancreatic elastase, using the method described by Anidjar et al. (Anidjar, S. Salzmann, J L, Generic, D, Lagneau, P, Camilleri, J P, and Michel, J B, “Elastase induced experimental aneurysms in rats,” Circulation 82:973-981 (1990); Halpern et al. (Halpern, V J. Liao, Nackman, G B, Gandhi, R H, Irizarry, E, Scholes, J V, Ramey, W G, and Tilson, M D, “The elastase infusion model of experimental aortic aneurysms: Synchrony of induction of endogenous protinases with matrix destruction and inflammatory cell response, “J. Vasc. Surg. […] Surg 23:336-346(1996)). This method is an accepted model for experimental induction of abdominal aortic aneurysms. The animals (n=6 rats in each group) were then treated with twice-daily subcutaneous injections of either saline vehicle (control), or various doses of doxycycline (Dox) or one of four different, non-antibiotic, chemically-modified tetracyclines (CMTs; CollaGenex, Inc., Newtown, Pa.). Aortic diameter (AD) was measured with microcalipers before and after elastase perfusion, and just prior to sacrifice on day 7. Abdominal aortic aneurysms were defined as an increase in final AD to at least twice that measured before perfusion (≥100% increase). Aortic tissues from two animals in each group were perfusion-fixed with 10% neutral buffered formalin, embedded in paraffin, and stained with Verhoeff-van Geisen (VVG) for elastin. Tissues from the remaining animals were extracted, normalized to total protein, and analyzed by gelatin substrate zymography as described (Thompson et al. 1995; Halpern et al. 1994; Petrinec 1996).

[2] = Liquid formulations of water insoluble rapamycins: concentration (HPLC) and visual observation; type: physicochemical
Source text: In accordance with exemplary embodiments of the present invention, a series of liquid formulations were developed for the local or regional delivery of water insoluble compounds such as sirolimus and its analogs, including CCI-779, ABT-578 and everolimus, through weeping balloons and catheter injection needles. […] These liquid formulations increase the apparent solubility of the pharmacologically active but water insoluble compounds by two to four orders. of magnitude as compared to the solubility limits of the compounds in water. These liquid formulations rely on the use of a very small amount of organic solvents such as Ethanol (typically less than two percent) and a larger amount of safe-amphiphilic (of or relating to a molecule having-a polar; water soluble group attached to a non-polar, water insoluble […]) excipients such as polyethylene glycol (PEG 200, PEG 400) and vitamin E TPGS to enhance the solubility of the compounds. These liquid formulations of highly. water insoluble compounds are stable and readily flowable at room temperature. Certain excipients, such as Vitamin E TPGS and BHT may be utilized to enhance the storage stability of sirolimus compounds through their anti-oxidation properties. […]

[3] = test system: human coronary artery smooth muscle cells; assay: Anti-proliferative activity in synchronized cultured human coronary artery smooth muscle cells stimulated with two percent fetal bovine serum; type: cell-based; conditions: topotecan to 300 nanomolar (FIG. 64), etoposide to eight hundred nanomolar (FIG. 65), Panzem to 100 micromolar (FIG. 68)
Source text: (§1) The multiple curves represent various concentrations of topotecan ranging from zero to three hundred nanomolar concentrations.
(§2) The multiple curves represent various concentrations of etoposide ranging from zero to eight hundred nanomolar concentrations.
The multiple curves represent various concentrations of Panzem® ranging from zero to 100 micromolar concentrations.

[4] = Cell viability assay (cytotoxicity); type: cell-based
Source text: as §1, §2

[5] = In vivo release kinetics from stent coatings in porcine pharmacokinetics studies
Source text: The topcoat is two hundred micro grams.
The basecoat is applied to Bx Velocity® stents and implanted into Yorkshire pigs.
Another critical parameter for the performance of the thrombus resistance of a device coated with cilostazol is the duration of the drug release from the coating. This is of particular significance in the two weeks after device implantation. […] The purpose of the porcine PK study is to assess the local pharmacokinetics of a drug eluting stent at a given implantation time. Normally three stents are implanted in three different coronary arteries in a pig for a given time point and then retrieved for total drug recovery analysis. The stents are retrieved at predetermined time points; namely, 1, 3 and 8 days. The stents are extracted and the total amount of drug remaining on the stents is determined by analysis utilizing HPLC (high performance liquid chromatography) for total drug amount. The difference between the original amount of drug on the stent and the amount of drug retrieved at a given time represents the amount of drug released in that period. The continuous release of drug into surrounding arterial tissue is what prevents the neointimal growth and restenosis in the coronary artery. A normal plot represents the percentage of total drug released (%, y-axis) vs. time of implantation (day, x-axis). […] In this exemplary configuration, the stent 8600 is coated with two layers. The first layer 8602 comprises a combination of sirolimus, cilostazol and a copolymer matrix of EVA/BMA. The second layer or diffusion overcoat 8604 comprises only BMA. More specifically, in this embodiment, the first layer 8602 comprises a combination of sirolimus and cilastazol that is forty-five (45) percent by weight of the total weight of the first layer 8602 and an EVA/BMA copolymer matrix that is fifty-five (55) percent by weight of the total weight of the first layer 8602. The diffusion overcoat comprises one hundred (100 μg) micrograms of BMA.
Pigs are an established animal species for intravascular stent studies and accepted for such studies by the appropriate regulatory agencies. This in vivo study utilized male pigs of the species Sus Scrofa and strain Yoorkshire pigs. S.M.A.R.T.™ stents, available from Cordis Corporation, were placed into the iliac and femoral arteries, PALMAZ® GENESIS™ stents, available from Cordis Corporation, were placed in the renal arteries and CYPHER™ stents, available from Cordis Corporation, were placed in the coronary arteries.

[6] = test system: human coronary artery smooth muscle cells; assay: Anti-proliferative activity in non-synchronized cultured human coronary artery smooth muscle cells stimulated with two percent fetal bovine serum; type: cell-based; conditions: for effect of addition on the anti-proliferative rapamycin dose response curve: mycophenolic acid zero to one thousand nanomolar (FIG. 52), cladribine zero to nine hundred nanomolar (FIG. 57)
Source text: The multiple curves represent various concentrations of mycophenolic acid ranging from zero to one thousand nanomolar concentrations.
FIG. 58 illustrates, in graphical format, the anti-proliferative activity of cladribine in non-synchronized cultured human coronary artery smooth muscle cells stimulated with two percent fetal bovine serum.
The multiple curves represent various concentrations of cladribine ranging from zero to nine hundred nanomolar concentrations.

tumor cell lines = conditions: cited from earlier work
[7] = test system: human coronary artery smooth muscle cell; assay: In vitro cell culture study of human coronary artery smooth muscle cell proliferation (trichostatin A); type: cell-based
Source text: FIG. 51 is a graph of the inhibition of coronary artery smooth muscle cells by trichostatin A in a cell culture study.

Molecule: NC(=O)C1=C(O)C[C@@H]2C[C@@H]3Cc4cccc(O)c4C(=O)C3=C(O)[C@]2(O)C1=O [CMT-3, 6-demethyl-6-deoxy-4-dedimethylaminotetracycline]
- relative efficacy in suppressing aneurysmal dilatation compared to Dox at the same dose [1]: 92%
- inhibition of aortic dilatation induced by elastase perfusion [1]: statistically significant

Molecule: CO[C@H]1C[C@@H]2CC[C@@H](C)[C@@](O)(O2)C(=O)C(=O)N2CCCC[C@H]2C(=O)O[C@H]([C@H](C)C[C@@H]2CC[C@@H](OC(=O)C(C)(CO)CO)[C@H](OC)C2)CC(=O)[C@H](C)/C=C(\C)[C@@H](O)[C@@H](OC)C(=O)[C@H](C)C[C@H](C)/C=C/C=C/C=C/1C [CCl-779]
- concentration in the final solution (HPLC assay) ([2]; ethanol (less than two percent), Vitamin E TPGS and water): 15000 µg/mL

Molecule: CC1(O)c2c(Cl)ccc(O)c2C(=O)C2=C(O)C3(O)C(=O)C(C(N)=O)=C(O)CC3CC21 (centres unmarked) [CMT-4, 4-dedimethylamino-7-chlorotetra-cycline]
- relative efficacy in suppressing aneurysmal dilatation compared to Dox at the same dose [1]: 75%
- inhibition of aortic dilatation induced by elastase perfusion [1]: did not reach statistical significance

Molecule: CC[C@@]1(O)C(=O)OCc2c1cc1n(c2=O)Cc2cc3c(CN(C)C)c(O)ccc3nc2-1 [topotecan]
- effect of addition on the anti-proliferative rapamycin dose response curve [3]: potentiate the anti-proliferative activity of rapamycin
- cytotoxicity in cell viability assay ([4]; at concentrations up to one micromolar): non-cytotoxic

Molecule: CO[C@H]1C[C@@H]2CC[C@@H](C)[C@@](O)(O2)C(=O)C(=O)N2CCCC[C@H]2C(=O)O[C@H]([C@H](C)C[C@@H]2CC[C@@H](O)[C@H](OC)C2)CC(=O)[C@H](C)/C=C(\C)[C@@H](O)[C@@H](OC)C(=O)[C@H](C)C[C@H](C)/C=C/C=C/C=C/1C [rapamycin]
- in vivo release rate, comparison ([5]; PVDF basecoat with rapamycin and mycophenolic acid, PVDF topcoat, FIG. 56): slower release rate than that of mycophenolic acid
- peak elution release at three days ([5]; PVDF/HFP (60/40) and rapamycin basecoat with 167 microgram PVDF/HFP topcoat, curve 4902): greater than seventy-five
- peak elution release at three days ([5]; PVDF/HFP (60/40) and rapamycin basecoat with 490 microgram BMA topcoat, curve 4912): less than fifty
- drug remaining in the drug coating ([5]; after eight (8) days of implantation, single layer sirolimus/cilostazol EVA/BMA coating with 100 μg BMA overcoat (FIG. 86), FIG. 84): ~80%
- concentration relative to the solubility of sirolimus in water ([2]; 4 mg/ml PEG 200 formulation): four hundred to about one thousand

Molecule: COc1c(C)c2c(c(O)c1C/C=C(\C)CCC(=O)O)C(=O)OC2 [mycophenolic acid]
- effect of addition on the anti-proliferative rapamycin dose response curve [6]: potentiates the anti-proliferative activity of rapamycin
- in vivo release from the basecoat, comparison ([5]; EVA/BMA basecoat with rapamycin and mycophenolic acid, BMA topcoat, FIGS. 53, 54): elutes more completely over a shorter duration than the rapamycin

Molecule: 4-dedimethylamino-12a-deoxytetracycline [CMT-7]
- relative efficacy in suppressing aneurysmal dilatation compared to Dox at the same dose [1]: 92%
- inhibition of aortic dilatation induced by elastase perfusion [1]: statistically significant

Molecule: COc1cc([C@@H]2c3cc4c(cc3[C@@H](O[C@@H]3O[C@@H]5CO[C@@H](C)O[C@H]5[C@H](O)[C@H]3O)[C@H]3COC(=O)[C@H]23)OCO4)cc(OC)c1O [etoposide]
- effect of addition on the anti-proliferative rapamycin dose response curve [3]: increases the percent inhibition of rapamycin alone
- cytotoxicity in cell viability assay ([4]; at concentrations up to ten micromolar): non-cytotoxic

Molecule: Nc1nc(Cl)nc2c1ncn2[C@H]1C[C@H](O)[C@@H](CO)O1 [Cladribine, 2-chlorodeoxyadenosine]
- inhibition of human coronary artery smooth muscle cell proliferation ([6]; FIG. 58): completely inhibits
- effect of addition on the anti-proliferative rapamycin dose response curve [6]: potentiate the anti-proliferative activity of rapamycin
- in vivo elution from the polymeric stent coating, comparison ([5]; EVA/BMA basecoat with rapamycin and cladribine, BMA topcoat, FIGS. 62, 63): elutes more rapidly than rapamycin

Molecule: C[C@H]1c2cccc(O)c2C(O)=C2C(=O)[C@]3(O)C(O)=C(C(N)=O)C(=O)C[C@@H]3[C@@H](O)[C@@H]21 [CMT-8, 6-α-deoxy-5-hydroxy-4-dedimethylaminotetracycline]
- relative efficacy in suppressing aneurysmal dilatation compared to Dox at the same dose [1]: 105%
- inhibition of aortic dilatation induced by elastase perfusion [1]: statistically significant

Molecule: CC(/C=C/C(=O)NO)=C\[C@@H](C)C(=O)c1ccc(N(C)C)cc1 [trichostatin A]
- anti-proliferative IC50 (tumor cell lines): low nM range
- IC50 ([7]; human coronary artery smooth muscle cell proliferation, read-out: anti-proliferative IC50): ~6 nM
- inhibition of human coronary artery smooth muscle cell proliferation ([7]; in vitro cell culture): completely inhibit

Source: patent US20070173787A1, “Thin-film nitinol based drug eluting stent” (priority 2005, published 2007)
